Test results taken from paper PMC6222789, “CF3-Substituted Mollugin 2-(4-Morpholinyl)-ethyl ester as a Potential Anti-inflammatory Agent with Improved Aqueous Solubility and Metabolic Stability” (Molecules : A Journal of Synthetic Chemistry and Natural …, 2018).

Legend:
[1] = Metabolic stability, human liver microsomes; format: in vitro ADME; details: 1 μM
Protocol: (§1) Pooled human liver microsomes (150 donor) and dog, rat, mouse liver microsomes were obtained from BD Gentest Co. (Woburn, MA, USA). NADPH regeneration system was obtained from Promega. S-Mephenytoin, 4-hydroxymephenytoin, and 1’-hydroxymidazolam were purchased from Ultrafine Chemical Co. (Manchester, UK). All other chemicals and solvents were of the highest grade available. The metabolic stability assay was performed by incubation of human or selected animal liver microsomes (most often dog, rat and mouse), at 37 °C with a test compound at a final concentration of 1 μM, in the presence of 0.5 mg/mL microsomal protein and NADPH regeneration system, in a total volume of 100 μL of 100 mM phosphate buffer, pH 7.4. The incubation was started by the addition of NADPH regeneration system and terminated with 40 μL of ice-cold acetonitrile at 0 and 30 min. Precipitated proteins were removed by centrifugation at 10,000× g for 5 min at 4 °C. Aliquots of the supernatant were injected onto an LC-MS/MS system. Incubations terminated prior to the addition of NADPH regeneration system (time point 0 min) were used as standards, defined as 100%. Percent of the parent compound remaining was calculated by comparing peak area.

[2] = Metabolic stability, mouse liver microsomes; format: in vitro ADME; details: 30 min, 1 μM
Protocol: as §1

[3] = Plasma stability, human plasma; format: in vitro ADME; details: 37 °C, 1 μM
Protocol: (§2) The plasma stability assay was performed by incubation of human or rat plasma with a test compound in a final concentration of 1 μM for 120 min at 37 °C. The incubation was terminated by addition of 40 μL of ice-cold acetonitrile and vortexing for 5 min. The precipitated proteins were removed by centrifugation at 14,000× g for 5 min at 4 °C. Aliquots of the supernatant were injected onto a Shimadzu Nexera XR LC system. Percentages of the parent compound remaining were calculated by comparing peak areas using the Xcalibur software (version 1.6.1, Waltham, MA, USA).

[4] = Plasma stability, rat plasma; format: in vitro ADME; details: 2 h, 37 °C, 1 μM
Protocol: as §2

CYP1A2 = target: T1, CYP1A2 (Homo sapiens, UniProt P05177); test: CYP inhibition assay, CYP1A2; format: in vitro ADME; details: for CYP Inhibition (% of Control) 1A2: 10 μM, CYP activity in presence of inhibitor as % of control, human liver microsomes
T1 construct: from tissue; host or cells: human liver microsomes
T1 sequence (P05177 1-516): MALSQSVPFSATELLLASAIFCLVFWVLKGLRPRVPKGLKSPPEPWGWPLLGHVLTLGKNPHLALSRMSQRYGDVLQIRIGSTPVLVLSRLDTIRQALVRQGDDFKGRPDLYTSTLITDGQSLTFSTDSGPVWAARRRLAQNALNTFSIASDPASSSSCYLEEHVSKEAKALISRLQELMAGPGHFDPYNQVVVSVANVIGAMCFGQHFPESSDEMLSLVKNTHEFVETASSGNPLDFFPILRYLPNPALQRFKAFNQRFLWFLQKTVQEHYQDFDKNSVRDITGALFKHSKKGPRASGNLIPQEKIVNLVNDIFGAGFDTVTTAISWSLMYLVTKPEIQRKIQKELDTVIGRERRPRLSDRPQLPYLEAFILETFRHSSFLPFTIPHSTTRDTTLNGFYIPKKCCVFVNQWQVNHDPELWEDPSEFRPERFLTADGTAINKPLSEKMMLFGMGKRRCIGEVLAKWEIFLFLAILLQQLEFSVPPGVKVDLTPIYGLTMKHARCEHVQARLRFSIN
Protocol: (§3) All incubations were performed in duplicate, and the mean values were used for analysis. The assays of phenacetin O-deethylase, tolbutamide 4-hydroxylase, S-mephenytoin 4-hydroxylase, dextromethorphan O-demethylase and midazolam 1′-hydroxylase activities were determined as probe activities for CYP1A2, CYP2C9, CYP2C19, CYP2D6 and CYP3A, respectively, using cocktail incubation and tandem mass spectrometry. Briefly, incubation reaction was performed with 0.25 mg/mL human liver microsomes in a final incubation volume of 100 μL. The incubation medium contained 100 mM phosphate buffer (pH 7.4) with probe substrates. The incubation mixture containing various inhibitors (10 μM) was pre-incubated for 5 min. After pre-incubation, an NADPH regenerating system was added. After incubation at 37 °C for 15 min, the reaction was stopped by placing the incubation tubes on ice and adding 40 μL of ice-cold acetonitrile. The incubation mixtures were then centrifuged at 10,000× g for 5 min at 4 °C. Aliquots of the supernatant were injected onto an LC-MS/MS system. The CYP-mediated activities in the presence of inhibitors were expressed as percentages of the corresponding control values.

CYP2C19 = target: T2, CYP2C19 (Homo sapiens, UniProt P33261); test: CYP inhibition assay, CYP2C19; format: in vitro ADME; details: for CYP Inhibition (% of Control) 2C19: 10 μM, CYP activity in presence of inhibitor as % of control, human liver microsomes
T2 construct: from tissue; host or cells: human liver microsomes
Protocol: as §3

CYP2D6 = target: T3, CYP2D6 (Homo sapiens, UniProt P10635); test: CYP inhibition assay, CYP2D6; format: in vitro ADME; details: for CYP Inhibition (% of Control) 2D6: 10 μM, CYP activity in presence of inhibitor as % of control, human liver microsomes
T3 construct: from tissue; host or cells: human liver microsomes
Protocol: as §3

CYP3A4 = test: CYP inhibition assay, CYP3A4; format: in vitro ADME, human; details: for CYP Inhibition (% of Control) 3A4: 10 μM, CYP activity in presence of inhibitor as % of control, human liver microsomes
Protocol: as §3

Serum Amyloid A (SAA) = test: Serum SAA level in DSS-induced colitis mouse model (ELISA); format: in vivo; details: for serum SAA level (mSS assay): 4% DSS-induced mouse model, compound 10 μM, ELISA; for effect on serum SAA level: murine model of DSS-induced colitis
Protocol: The level of Serum Amyloid A (SAA) was measured using a mouse SAA ELISA kit according to the manufacturer’s instructions (E-90SAA, Immunology Consultants Laboratory, Inc., Portland, OR, USA). All samples were assayed in duplicate. The concentrations of SAA were determined by comparison to serial dilutions of purified SAA calibrator.
Figure 2 Analysis of mouse serum amyloid A (SAA) level. Effect of 6d on the level of SAA in the 4% dextran sulfate sodium (DSS)-induced mouse model. The level of SAA in serum was determined by ELISA. The control mice received water + vehicle (water), and the treated groups received 4% DSS + vehicle or DSS with mesalazine (20 mM), 6d (10 μM), or 15c (10 μM). TEXT PRINTED IN THE PICTURE: vehecle: mSS assay (ng/ml): 252.08 | vehecle: mSS assay (ng/ml): 732.93 (4% DSS) | 2: mSS assay (ng/ml): 788.86 (4% DSS) | 6d: mSS assay (ng/ml): 295.77 (4% DSS) | 15c: mSS assay (ng/ml): 300.95 (4% DSS)

T2 sequence (P33261 whole entry): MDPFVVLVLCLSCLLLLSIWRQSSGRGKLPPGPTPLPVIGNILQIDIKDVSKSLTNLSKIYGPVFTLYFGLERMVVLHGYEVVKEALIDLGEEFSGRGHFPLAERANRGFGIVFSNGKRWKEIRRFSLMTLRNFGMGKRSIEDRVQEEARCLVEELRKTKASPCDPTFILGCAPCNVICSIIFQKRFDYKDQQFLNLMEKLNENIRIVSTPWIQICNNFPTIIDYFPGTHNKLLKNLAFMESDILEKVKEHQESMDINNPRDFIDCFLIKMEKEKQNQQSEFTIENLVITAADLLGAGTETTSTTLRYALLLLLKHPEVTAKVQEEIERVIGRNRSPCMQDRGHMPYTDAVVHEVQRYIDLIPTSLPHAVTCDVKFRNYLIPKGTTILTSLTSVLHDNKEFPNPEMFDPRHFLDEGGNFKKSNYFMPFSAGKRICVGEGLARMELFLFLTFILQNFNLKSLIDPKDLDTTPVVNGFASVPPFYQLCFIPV
T3 sequence (P10635 whole entry): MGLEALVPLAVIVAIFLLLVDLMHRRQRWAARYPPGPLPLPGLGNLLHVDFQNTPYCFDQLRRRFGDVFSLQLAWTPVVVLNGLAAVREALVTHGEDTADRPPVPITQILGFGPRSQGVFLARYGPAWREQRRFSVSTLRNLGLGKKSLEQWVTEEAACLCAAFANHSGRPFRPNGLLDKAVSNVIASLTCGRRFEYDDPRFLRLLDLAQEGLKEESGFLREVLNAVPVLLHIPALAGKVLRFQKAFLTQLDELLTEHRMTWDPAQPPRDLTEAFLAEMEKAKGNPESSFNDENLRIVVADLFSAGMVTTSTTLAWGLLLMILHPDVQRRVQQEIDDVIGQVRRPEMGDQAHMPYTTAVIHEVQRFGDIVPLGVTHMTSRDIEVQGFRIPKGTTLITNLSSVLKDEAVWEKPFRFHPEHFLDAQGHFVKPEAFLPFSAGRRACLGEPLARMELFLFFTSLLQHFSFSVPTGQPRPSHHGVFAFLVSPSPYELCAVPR

Metabolic Stability (% Remain, 30 min) Human [1] | Metabolic Stability (% Remain, 30 min) Mouse [2] | Plasma Stability (% Remain, 2 h) Human [3] | Plasma Stability (% Remain, 2 h) Rat [4] | CYP Inhibition (% of Control) 1A2 (CYP1A2) | CYP Inhibition (% of Control) 2C19 (CYP2C19) | CYP Inhibition (% of Control) 2D6 (CYP2D6) | CYP Inhibition (% of Control) 3A4 (CYP3A4) | inhibition at 15 min, 10 μM (CYP1A2; human, liver microsomes, pH 7.4, probe phenacetin (O-deethylation), at 10 μM drug concentration, read-out: % inhibition of CYP 1A2) | inhibition at 15 min, 10 μM (CYP2C19; human, liver microsomes, pH 7.4, probe S-mephenytoin (4-hydroxylation), at 10 μM drug concentration, read-out: % inhibition of CYP 2C19) | inhibition at 15 min, 10 μM (CYP2D6; human, liver microsomes, pH 7.4, probe dextromethorphan (O-demethylation), at 10 μM drug concentration, read-out: % inhibition of CYP 2D6) | inhibition at 15 min, 10 μM (CYP3A4; human, liver microsomes, pH 7.4, probe midazolam (1′-hydroxylation), at 10 μM drug concentration, read-out: % inhibition of CYP 3A4) | SMILES | serum SAA level (mSS assay) (Serum Amyloid A (SAA)) | effect on serum SAA level (Serum Amyloid A (SAA))
83 % Remain | 10 % Remain | 97 % Remain | 97 % Remain | 58 % of Control | 68 % of Control | 75 % of Control | 91 % of Control |  |  |  |  | CC1(C)C=Cc2c(C(=O)OCCN3CCOCC3)c(O)c3ccccc3c2O1 [6d, 2-Morpholinoethyl 6-hydroxy-2,2-dimethyl-2H-benzo[h]chromene-5-carboxylate] | 295.77 ng/mL | reduces serum SAA level
84 % Remain | 45 % Remain | 100 % Remain | 51 % Remain | 57 % of Control | 93 % of Control | 92 % of Control | 90 % of Control | < 50% | < 50% | < 50% | < 50% | CC1(C)C=Cc2c(C(=O)OCCN3CCOCC3)c(O)c3cc(C(F)(F)F)ccc3c2O1 [15c, 2-Morpholinoethyl 6-hydroxy-2,2-dimethyl-8-(trifluoromethyl)-2H-benzo[h]chromene-5-carboxylate] | 300.95 ng/mL | reduces serum SAA level
